Experimental data: US20110034507A1, “FARNESOID X RECEPTOR AGONISTS” (SMITHKLINE BEECHAM CORPORATION, priority 2007, published 2011)

Molecular target: T1, Human FXRα Ligand Binding Domain (Homo sapiens, UniProt Q96RI1)
T1 construct: polyhistidine (pRSET-A vector leader) (N); made in house; host or cells: E. coli BL21 (DE3), pRSET-A vector
T1 sequence (Q96RI1 237-472 isoform Q96RI1-2): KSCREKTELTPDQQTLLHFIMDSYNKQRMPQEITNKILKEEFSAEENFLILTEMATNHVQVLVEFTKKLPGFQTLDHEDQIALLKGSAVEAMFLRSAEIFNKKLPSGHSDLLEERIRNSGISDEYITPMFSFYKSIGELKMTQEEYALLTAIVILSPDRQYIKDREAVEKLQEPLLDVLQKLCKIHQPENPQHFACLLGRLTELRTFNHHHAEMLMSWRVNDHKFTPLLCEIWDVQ
Experiment: FXR Cofactor Binding Assay (ligand mediated SRC-1 cofactor peptide interaction, time resolved fluorescence)
Format: biochemical
Conditions: FXRα LBD / SRC-1 (LCD2, 676-700) peptide, TRF; read-out: Activity (pEC50) (converted)
Source text: Determination of a ligand mediated cofactor peptide interaction to quantify ligand binding to the nuclear receptor Farnesoid X Receptor (FXR). The method measures the ability of putative ligands to modulate the interaction between the purified bacterial expressed FXRα ligand binding domain (LBD) and a synthetic biotinylated peptide based on residues 676-700 of steroid receptor coactivator-1 (SRC-1) (LXXLL-containing domain-2 where L is the amino acid leucine and X indicates any other amino acid (LCD2), 676-700). The sequence of the SRC-1 peptide used is as published in Iannone, M. A., et al., 2001 Cytometry 44:326-337 where the N-terminus was biotinylated (B) and the C-terminus was amidated. Detection of the associated complex was measured by time resolved fluorescence (TRF). The purified LBD of FXR was labeled with biotin, then mixed with stoichiometric amounts of allophycocyanin (APC) labeled streptavidin (Molecular Probes). The biotinylated peptide was then mixed with a ½ stoichiometric amount of europium labeled streptavidin (Wallac Inc). Each was then blocked with a 5 fold excess of biotin and allowed to equilibrate for 15 min. Equimolar amounts of receptor and peptide were mixed together and were allowed to equilibrate for at least 30 min prior to the addition to either a variable or constant concentrations of the sample for which the affinity is to be determined. After equilibration, the time-resolved fluorescent signal was quantitated using a fluorescent plate reader. The affinity of the test compound was estimated from a plot of fluorescence versus concentration of test compound added.
Ligands that promote the complex formation induce a concentration-dependent increase in time-resolved fluorescent signal.
Human FXRα Ligand Binding Domain (FXRα LBD) was expressed in E. coli strain BL21 (DE3) as an amino-terminal polyhistidine tagged fusion protein. Expression was under the control of an isopropyl-β-D-thiogalactopyranoside (IPTG) inducible T7 promoter. DNA encoding this recombinant protein is subcloned into the pRSET-A expression vector (Invitrogen). The coding sequence of Human FXRα LBD was derived from Genbank accession number U 68233 (amino acids 237 to 472).
Ten-liter fermentation batches were grown in Rich PO4 media with 0.1 mg/mL Ampicillin at 25° C. for 12 hours, cooled to 9° C. and held at that temperature for 36 hours to a density of OD600=14. At this cell density, 0.25 mM IPTG is added and induction proceeded for 24 hours at 9° C., to a final OD600=16. Cells are harvested by centrifugation (20 minutes, 3500×gravity, 4° C.), and concentrated cell slurries were stored in phosphate buffered saline (PBS) at […].
Routinely, 30-40 g cell paste (equivalent to 2-3 liters of the fermentation batch) was resuspended in 200-250 mL Tris buffered saline (TBS), pH 7.2 (25 mM Tris-hydroxymethylamino methane (Tris), 150 mM sodium chloride). Cells were lysed by passing 3 times through a French Press and cell debris was removed by centrifugation (30 minutes, 20,000×gravity, 4° C.). The cleared supernatant was filtered through course pre-filters, and TBS, pH 7.2, 500 mM imidazole was added to obtain a final imidazole concentration of 50 mM. This lysate was loaded onto a column (6×8 cm) packed with Sepharose [Ni^++ charged] Chelation resin (Pharmacia) and pre-equilibrated with TBS pH 7.2/50 mM imidazole. After washing to baseline absorbance with equilibration buffer, the column was washed with one column volume of TBS pH 7.2 containing 90 mM imidazole. FXRα LBD was eluted directly with 365 mM imidazole. Column fractions were pooled and dialyzed against TBS, pH 7.2, containing 0.5 mM EDTA and 5 mM DTT. The dialyzed protein sample was concentrated using Centri-prep 10 K (Amicon) and subjected to size exclusion, using a column (3×90 cm) packed with Sepharose S-75 resin (Pharmacia) pre-equilibrated with TBS, pH 7.2, containing 0.5 mM ethylene diamine tetraacetic acid (EDTA) and 5 mM dithiothreitol (DTT).

| EC50 | SMILES |
| --- | --- |
| 0.102 to 1 µM | Cc1cccc(C)c1OCc1noc(C(C)C)c1COc1ccc2c(ccn2Cc2cccc(C(=O)O)c2)c1 [Example 1, 3-{[5-({[3-{[(2,6-dimethylphenyl)oxy]methyl}-5-(1-methylethyl)-4-isoxazolyl]methyl}oxy)-1H-indol-1-yl]methyl}benzoic acid] |
| 1.02 to 10 µM | CC(C)c1onc(COc2c(F)cc(F)cc2F)c1COc1ccc2c(ccn2Cc2cccc(C(=O)O)c2)c1 [Example 2, 3-[(5-{[(5-(1-methylethyl)-3-{[(2,4,6-trifluorophenyl)oxy]methyl}-4-isoxazolyl)methyl]oxy}-1H-indol-1-yl)methyl]benzoic acid] |
| 0.102 to 1 µM | CC(C)c1onc(COc2c(Cl)cc(Cl)cc2Cl)c1COc1ccc2c(ccn2Cc2cccc(C(=O)O)c2)c1 [Example 3, 3-[(5-{[(5-(1-methylethyl)-3-{[(2,4,6-trichlorophenyl)oxy]methyl}-4-isoxazolyl)methyl]oxy}-1H-indol-1-yl)methyl]benzoic acid] |
| 1.02 to 10 µM | CC(C)c1onc(CNc2c(Cl)cccc2Cl)c1COc1ccc2c(ccn2Cc2cccc(C(=O)O)c2)c1 [Example 4, 3-{[5-({[3-{[(2,6-dichlorophenyl)amino]methyl}-5-(1-methylethyl)-4-isoxazolyl]methyl}oxy)-1H-indol-1-yl]methyl}benzoic acid] |
| 0.102 to 1 µM | CC(C)c1onc(COc2c(Br)cccc2Br)c1COc1ccc2c(ccn2Cc2cccc(C(=O)O)c2)c1 [Example 5, 3-{[5-({[3-{[(2,6-dibromophenyl)oxy]methyl}-5-(1-methylethyl)-4-isoxazolyl]methyl}oxy)-1H-indol-1-yl]methyl}benzoic acid] |
| 1.02 to 10 µM | CC(C)c1onc(CSc2nccs2)c1COc1ccc2c(ccn2Cc2cccc(C(=O)O)c2)c1 [Example 6, 3-({5-[({5-(1-methylethyl)-3-[(1,3-thiazol-2-ylthio)methyl]-4-isoxazolyl}methyl)oxy]-1H-indol-1-yl}methyl)benzoic acid] |
| 0.102 to 1 µM | CC(C)c1onc(-c2c(Cl)cncc2Cl)c1COc1ccc2ccn(Cc3cccc(C(=O)O)c3)c2c1 [Example 8, 3-{[6-({[3-(3,5-dichloro-4-pyridinyl)-5-(1-methylethyl)-4-isoxazolyl]methyl}oxy)-1H-indol-1-yl]methyl}benzoic acid] |
| 0.102 to 1 µM | CC(C)c1onc(-c2c(Cl)cccc2Cl)c1COc1ccc2c(ccn2C(=O)c2cccc(C(=O)O)c2)c1 [Example 10, 3-{[5-({[3-(2,6-Dichlorophenyl)-5-(1-methylethyl)-4-isoxazoly]methyl}oxy)-1H-indol-1-yl]carbonyl}benzoic acid] |
| 0.102 to 1 µM | CC(C)c1onc(-c2c(Cl)cccc2Cl)c1COc1ccc2c(ccn2Cc2cccc(-c3nnn[nH]3)c2)c1 [Example 12, 5-({[3-(2,6-Dichlorophenyl)-5-(1-methylethyl)-4-isoxazolyl]methyl}oxy)-1-{[3-(1H-tetrazol-5-yl)phenyl]methyl}-1H-indole] |
| 0.102 to 1 µM | CC(C)c1onc(-c2c(Cl)cccc2Cl)c1COc1ccc2c(ccn2Cc2ccc(C(=O)O)cc2)c1 [Example 13, 4-{[5-({[3-(2,6-Dichlorophenyl)-5-(1-methylethyl)-4-isoxazolyl]methyl}oxy)-1H-indol-1-yl]methyl}benzoic acid] |
| 0.102 to 1 µM | CC(C)c1onc(COc2c(Cl)cc(F)cc2Cl)c1COc1ccc2c(ccn2Cc2cccc(C(=O)O)c2)c1 [Example 14, 3-{[5-({[3-{[(2,6-Dichloro-4-fluorophenyl)oxy]methyl}-5-(1-methylethyl)-4-isoxazolyl]methyl}oxy)-1H-indol-1-yl]methyl}benzoic acid] |
| 0.102 to 1 µM | CC(C)c1onc(COc2c(Cl)cccc2Cl)c1COc1ccc2c(ccn2Cc2cccc(C(=O)O)c2)c1 [Example 15, 3-{[5-({[3-{[(2,6-Dichlorophenyl)oxy]methyl}-5-(1-methylethyl)-4-isoxazolyl]methyl}oxy)-1H-indol-1-yl]methyl}benzoic acid] |

The next lines start with the compound.

| SMILES | EC50 |
| --- | --- |
| CC(C)c1onc(-c2ccccc2OC(F)(F)F)c1COc1ccc2c(ccn2Cc2cccc(C(=O)O)c2)c1 [Example 7, 3-[(5-{[(5-(1-Methylethyl)-3-{2-[(trifluoromethyl)oxy]phenyl}-4-isoxazolyl)methyl]oxy}-1H-indol-1-yl)methyl]benzoic acid] | 0.102 to 1 µM |
| CC(C)c1onc(-c2c(Cl)cccc2Cl)c1COc1ccc2cc(-c3ccc(C(=O)O)cc3)sc2c1 [Example 9, 4-[6-({[3-(2,6-Dichlorophenyl)-5-(1-methylethyl)-4-isoxazolyl]methyl}oxy)-1-benzothien-2-yl]benzoic acid] | 0.102 to 1 µM |
| CC(C)c1onc(-c2c(Cl)cccc2Cl)c1COc1ccc2nc(-c3cccc(C(=O)O)c3)sc2c1 [Example 11, 3-[6-({[3-(2,6-Dichlorophenyl)-5-(1-methylethyl)-4-isoxazolyl]methyl}oxy)-1,3-benzothiazol-2-yl]benzoic acid] | 0.102 to 1 µM |
| CC(C)c1onc(-c2c(Cl)cccc2Cl)c1COc1ccc2sc(-c3ccc(C(=O)O)cc3)cc2c1 [Example 16, 4-[5-({[3-(2,6-Dichlorophenyl)-5-(1-methylethyl)-4-isoxazolyl]methyl}oxy)-1-benzothien-2-yl]benzoic acid] | 0.102 to 1 µM |
| CC(C)c1onc(-c2c(Cl)cccc2Cl)c1COc1ccc2cc(-c3cncc(C(=O)O)c3)ccc2c1 [Example 17, 5-[6-({[3-(2,6-Dichlorophenyl)-5-(1-methylethyl)-4-isoxazolyl]methyl}oxy)-2-naphthalenyl]-3-pyridinecarboxylic acid] | 0.102 to 1 µM |
| CC(C)c1onc(-c2c(Cl)cccc2Cl)c1COc1ccc2cc(-c3cccc(C(=O)O)n3)ccc2c1 [Example 18, 6-[6-({[3-(2,6-Dichlorophenyl)-5-(1-methylethyl)-4-isoxazolyl]methyl}oxy)-2-naphthalenyl]-2-pyridinecarboxylic acid] | 0.102 to 1 µM |
| CC(C)c1onc(-c2c(Cl)cccc2Cl)c1COc1ccc2cc(-c3ccc(C(=O)O)nc3)ccc2c1 [Example 19, 5-[6-({[3-(2,6-Dichlorophenyl)-5-(1-methylethyl)-4-isoxazolyl]methyl}oxy)-2-naphthalenyl]-2-pyridinecarboxylic acid] | 0.102 to 1 µM |
| CC(C)c1onc(-c2c(Cl)cccc2Cl)c1COc1ccc2cc(-c3ccnc(C(=O)O)c3)ccc2c1 [Example 20, 4-[6-({[3-(2,6-Dichlorophenyl)-5-(1-methylethyl)-4-isoxazolyl]methyl}oxy)-2-naphthalenyl]-2-pyridinecarboxylic acid] | 0.102 to 1 µM |
| CC(C)c1onc(-c2c(Cl)cccc2Cl)c1COc1ccc2cc(-c3cc(C(=O)O)ccn3)ccc2c1 [Example 21, 2-[6-({[3-(2,6-Dichlorophenyl)-5-(1-methylethyl)-4-isoxazolyl]methyl}oxy)-2-naphthalenyl]-4-pyridinecarboxylic acid] | 0.102 to 1 µM |
| CC(C)c1onc(-c2c(Cl)cccc2Cl)c1COc1ccc2cc(-c3ccc(C(=O)O)cc3)ccc2c1 [Example 22, 4-[6-({[3-(2,6-Dichlorophenyl)-5-(1-methylethyl)-4-isoxazolyl]methyl}oxy)-2-naphthalenyl]benzoic acid] | 0.102 to 1 µM |
